Test results reported in patent US20170071991A1, “Oncolytic Virus and Aurora Kinase Inhibitor for the Treatment of Cancer” (priority 2014, published 2017).
“Also recorded” adds a separate entry of the source.

How the values were obtained:
[1] = pro-drug; cited from earlier work
[2] = human plasma; cited from earlier work
[3] = system: human acute myelogenous leukemia (HL60) nude mice xenografts; details: cited from earlier work
[4] = system: human colon cancer (HCT116) nude rat xenograft; details: HCT116 nude rat xenograft model; cited from earlier work
S462TY xenografts = assay: S462TY nude mouse xenograft, multiple cycles of lower dose MLN8237 plus HSV1716; format: in vivo, nude mice; details: multiple weekly ITu HSV1716 1×10^7 pfu and/or MLN8237 10 mg/kg once daily 5-day cycles
Description: The schema used for each of the 4 groups is shown in FIG. 8 and tumor growth and survival were monitored throughout the experiment.

S462TY flank xenografts = assay: S462TY nude mouse flank xenograft, single HSV1716 dose plus MLN8237 20 mg/kg twice daily; format: in vivo, nude mice
Procedure: Single intratumoral (ITu) injections of 1.0×10^7 pfu HSV1716 or PBS or single intravenous (IV) injections of 9.0×10^7 pfu HSV1716 or PBS were administered on day 7 and tumor growth and survival were monitored.

[5] = cited from earlier work
[6] = system: senescence-associated beta-galactosidase in S462TY xenografts; assay: Senescence detection with X-gal (SA-β-gal) in S462TY xenografts
[7] = system: HSV1716 titre in S462TY xenografts; assay: HSV1716 titration of S462TY xenograft tumours after ITu injection; format: in vivo, mice
Description: MLN8237-treated or control, untreated mice with S462TY xenografts received ITu HSV1716 and tumours, removed at 2 and 48 hrs after virus administration, were titrated (FIG. 18).

[8] = system: multiple tumor cell lines; details: values as low as; read-out: GI50, growth of multiple tumor cell lines; cited from earlier work
[9] = system: receptors and ion channels; details: cited from earlier work
[10] = system: HSV1716 uptake by S462TY cells; assay: Quantitative PCR for HSV1716 genomes in S462TY cells in vitro; format: cell-based; details: 30 min post infection, acid wash
Procedure: S462TY cells were infected with HSV1716 and an acid wash after 30 mins was used to remove residual free virus which had not penetrated intracellularly.

[11] = system: SK-N-AS flank xenografts (neuroblastoma); assay: SK-N-AS nude mouse flank xenograft model; format: in vivo, nude mice
Description: SK-N-AS cells were derived from a bone marrow metastasis […] of a child with poorly differentiated embryonal neuroblastoma and the cell line readily formed flank xenografts in nude mice. […] The schema used for each of the 4 groups is shown in FIG. 13 and tumor growth and survival were monitored throughout the experiment.

[12] = S462TY flank xenografts, best response for at least 21 days, last response day 53, route as in label
[13] = S462TY flank xenografts, day 53, route as in label

SMILES: CCN(CCCOc1ccc2c(Nc3cc(CC(=O)Nc4cccc(F)c4)n[nH]3)ncnc2c1)CCOP(=O)(O)O [AZD1152]
- solubility [1]: highly soluble
- cleavage of pro-drug to active drug substance AZD1152 hydroxy-QPA [2]: cleaved completely

SMILES: Cc1cc(Nc2cc(N3CCN(C)CC3)nc(Sc3ccc(NC(=O)C4CC4)cc3)n2)n[nH]1 [MK0457]
- reduction in tumor volume when compared with controls [3]: 98%
- tumor regression, rats treated [4]: four of the seven rats

SMILES: COc1cc(Nc2ncc3c(n2)-c2ccc(Cl)cc2C(c2c(F)cccc2OC)=NC3)ccc1C(=O)O [MLN8237]
- tumor growth of S462TY xenografts (FIG. 9, 10) (S462TY xenografts): reduced the growth
- tumor growth of S462TY xenografts (FIG. 5a) (S462TY flank xenografts; HSV1716 single ITu 1.0×10^7 pfu day 7 and/or MLN8237 20 mg/kg oral twice daily, 42 days): initially effective at preventing growth of the xenografts
- survival compared to vehicle/PBS-treated controls (FIG. 6) (S462TY flank xenografts; HSV1716 single ITu 1×10^7 pfu day 7 and/or MLN8237 20 mg/kg twice daily): improved survival
- PR-->PD, evaluable mice (S462TY flank xenografts; [12]): 0
- SD-->PD, evaluable mice (S462TY flank xenografts; [12]): 6
- PD (Progressive Disease), evaluable mice (S462TY flank xenografts; S462TY flank xenografts, day 53 (11 days after last treatment), MLN8237 20 mg/kg oral twice daily 5 d/week 42 days, HSV1716 single ITu 1.0×10^7 or IV 9.0×10^7 pfu day 7, route as in label): 4
- CR (Complete Response), evaluable mice (S462TY flank xenografts; [13]): 0
- PR (Partial Response), evaluable mice (S462TY flank xenografts; [13]): 0
- day by which most of the mice had been sacrificed (S462TY flank xenografts; single agents: IV HSV1716, MLN8237 twice daily doses): ≤ 60 days
- oral availability and absorption [5]: orally available and rapidly absorbed
- sections staining after incubation with X-gal (MLN8237-induced senescence) [6]: 1/18
- free input virus detected in MLN8237-treated tumours ([7]; 2 hrs after ITu HSV1716): less of the free input virus detected
- virus titre in MLN8237-treated compared to untreated control tumors ([7]; 48 hrs after ITu HSV1716): no apparent increase in virus titre
- GI50 [8]: ≥ 0.016 µM
- cross-reactivity in broad screen of receptors and ion channels [9]: no significant cross-reactivity
- uptake/infection rate of HSV1716 (intracellular genomes, Q-PCR normalised to GAPDH) [10]: significantly increases intracellular HSV1716 genomes; also recorded: significantly higher uptake/infection rate
- tumor growth, comparison between the four groups on day 21 (FIG. 16) ([11]; day 21): highly significant reduction in tumor growth
- mice still alive on day 25 ([11]; day 25, single agents): approximately 50%
- tumor growth of SK-N-AS xenografts (FIG. 14) ([11]; five weekly ITu HSV1716 1×10^7 pfu and/or MLN8237 10 mg/kg once daily 5-day cycles): reduced the growth
